{"source": "patent US20060199841A1", "about": "“Pharmaceutical combination for the treatment of spasticity and/or pain” (priority 2003, published 2006)", "key": {"[1]": {"system": "GYKI 20039 induced tremor", "test": "Tremor test in mice (GYKI 20039 induced tremor)", "format": "in vivo", "details": "for ED50: Mus musculus, ip; for Tremor inhibitory effect ED50: i.p.", "from_the_text": "Tremor can be induced by administration of GYKI 20039 (3-(2,6-dichlorophenyl)-2-iminothiazolidine). The method was published by Kocsis P., Tarnawa I., Kovács Gy., Szombathelyi Zs., Farkas S., 2002; Acta Pharmaceut. Hung., 72:49-61; U.S. Pat. No. 5,340,823, 1994, U.S. Pat. No. 5,198,446, JP 1992270293, EP 0468825, 1990 HU 4647.\nThe aim of our experiments was to decide if the effect of tolperisone is influenced by co-administration of dextromethorphan."}, "[2]": {"system": "neuropathic pain (allodynia)", "test": "Rat allodynia model (Bennet-Xie model, von Frey filaments)", "format": "in vivo", "details": "for analgesic effect in the allodynia model (in words): i.p., dextromethorphan 10 mg/kg alone or in combined treatment with tolperisone", "from_the_text": "In our experiments, we applied the Bennet-Xie model (G. J. Bennett, Y.-K. Xie, Pain 33: 87-107; 1988) to test the effect of the combination against neuropathic pain. We measured the threshold of the pain reaction with von Frey filaments calibrated to 0.9, 1.2, 1.8, 3.6, 5.4, 6.9, 8.9, 12 and 20 g."}, "[3]": {"system": "pain", "details": "cited from earlier work"}, "[4]": {"system": "monosynaptic reflex, hemisected spinal cord preparation", "test": "Spinal reflex inhibitory action in vitro, hemisected spinal cord preparation", "protocol": "Spinal reflex Inhibitory Action, In Vitro\nOur experiments were performed according to the methods described by Otsuka and Konishi (Otsuka and Konishi, Nature 1974. 252, 733.), with slight modifications (Kocsis et al., Brain Res. Bull. 2003. 60, 81.).\nThis experiment is suitable for testing central muscle relaxant activity. In the tremor test the efficacy of drugs may be considerably influenced by metabolic and pharmacokinetic factors, therefore we used an in vitro model to investigate the pharmacodynamic interaction between the components of the combination without the interference of the above factors.\nWe determined the dose-response curve for monosynaptic reflex inhibition of dextromethorphan alone, and in the presence of tolperisone or eperisone. In the control study we measured the effect of dextromethorphan at 0.25; 0.5 and 1 μM. In other experiments we added tolperisone (25 μM) or eperisone (20 μM) to the perfusion solution, and taking the equilibrium responses in these conditions as references, we measured the reflex inhibitory action of dextromethorphan. […] The potentiating effect of eperisone has been even more expressed (see Table 4.)."}, "[5]": {"details": "in humans; cited from earlier work"}, "[6]": {"details": "15-minute pre-treatment, dose causing 50% tremor inhibition, read-out: Tremor inhibitory effect ED50"}, "[7]": {"details": "15-minute pre-treatment, dose causing 50% tremor inhibition"}}, "note": "Like-named read-outs stand apart in the source and are kept apart here."}
{"smiles": "CC12CC3CC(C)(C1)CC(N)(C3)C2", "note": "[Memantine]", "values": [{"measurement": "ED50", "setting": "[1]; [6]", "result": 20.5, "unit": "mg/kg"}]}
{"smiles": "COc1ccc2c(c1)[C@]13CCCC[C@@H]1[C@H](C2)N(C)CC3", "note": "(racemic) [Dextromethorphan, (+/−)-3-methoxi-17-methylmorphinan]", "values": [{"measurement": "Inhibition of tremor (control %) Mean", "setting": "[1]; 10 mg/kg dextromethorphan i.p.", "result": 8, "unit": "control %"}, {"measurement": "tremor inhibition (in words)", "setting": "[1]; 10 mg/kg dextromethorphan, 10-minute pre-treatment", "result": "no significant tremor inhibition"}, {"measurement": "ED50", "setting": "[1]; read-out: ED50 of inhibition of the tremor", "result": 24.4, "unit": "mg/kg"}, {"measurement": "Threshold value (g) mean", "setting": "[2]; dextromethorphan 10 mg/kg i.p., time 0 min", "result": 3.26, "unit": "g"}, {"measurement": "Threshold value (g) mean", "setting": "[2]; dextromethorphan 10 mg/kg i.p., time 10 min", "result": 7.57, "unit": "g"}, {"measurement": "Threshold value (g) mean", "setting": "[2]; dextromethorphan 10 mg/kg i.p., time 20 min", "result": 6.03, "unit": "g"}, {"measurement": "analgesic effect in the allodynia model (in words)", "setting": "[2]", "result": "practically ineffective"}, {"measurement": "effect in the treatment of chronic pain", "setting": "[3]; clinical trials, Ben-Abraham and Weinbroum 2000", "result": "ineffective"}, {"measurement": "effect in an experimental human pain model", "setting": "[3]; clinically acceptable dose range, Kaippula et al. 1995", "result": "no effect"}, {"measurement": "relieving acute ischemic pain", "setting": "[3]; in humans, Plesan et al. 2000", "result": "without effect"}, {"measurement": "inhibition at 0.25 µM", "setting": "[4]; dextromethorphan 0.25 μM alone", "result": 20.7, "unit": "%"}, {"measurement": "inhibition at 0.5 µM", "setting": "[4]; dextromethorphan 0.5 μM alone", "result": 36.6, "unit": "%"}, {"measurement": "inhibition at 1 µM", "setting": "[4]; dextromethorphan 1 μM alone", "result": 40.9, "unit": "%"}, {"measurement": "IC50", "setting": "[4]; dextromethorphan alone, read-out: IC50 of dextromethorphan, reflex inhibitory activity", "result": 1.56, "unit": "µM"}]}
{"smiles": "Cc1ccccc1-n1c(CF)nc2ccc(N)cc2c1=O", "note": "[Afloqualon]", "values": [{"measurement": "Tremor inhibitory effect ED50", "setting": "[1]; [7]", "result": 11.1, "unit": "mg/kg"}]}
{"smiles": "Clc1ccc2nsnc2c1NC1=NCCN1", "note": "[Tizanidine]", "values": [{"measurement": "ED50", "setting": "[1]; [6]", "result": 0.73, "unit": "mg/kg"}]}
{"smiles": "NCC(CC(=O)O)c1ccc(Cl)cc1", "note": "(stereo not shown) [Baclofen]", "values": [{"measurement": "ED50", "setting": "[1]; [6]", "result": 9.1, "unit": "mg/kg"}]}
{"smiles": "Cc1ccc(C(=O)C(C)CN2CCCCC2)cc1", "note": "(stereo not shown) [Tolperisone, 2-mehyl-1-(4-methylphenyl)-3-(1-piperidinyl)-1-propanone]", "values": [{"measurement": "Inhibition of tremor (control %) Mean", "setting": "[1]; 40 mg/kg tolperisone i.p.", "result": 27, "unit": "control %"}, {"measurement": "Inhibition of tremor (control %) Mean", "setting": "[1]; 60 mg/kg tolperisone i.p.", "result": 48, "unit": "control %"}, {"measurement": "Tremor inhibitory effect ED50", "setting": "[1]; [7]", "result": 60.0, "unit": "mg/kg"}, {"measurement": "Inhibition of tremor (%)", "setting": "[1]; tolperisone 60 mg/kg i.p., dextromethorphan 0 mg/kg", "result": 48.3, "unit": "%"}, {"measurement": "ED50 for the tremor inhibitory activity", "setting": "[1]; tolperisone alone", "result": "55.0 ± 7.2", "unit": "mg/kg"}, {"measurement": "analgesic effect in the allodynia model (in words)", "setting": "[2]", "result": "significant analgesic effect"}, {"measurement": "Threshold value (g) mean", "setting": "[2]; tolperisone 20 mg/kg i.p., time 0 min", "result": 3.6, "unit": "g"}, {"measurement": "Threshold value (g) mean", "setting": "[2]; tolperisone 20 mg/kg i.p., time 10 min", "result": 14.89, "unit": "g"}, {"measurement": "Threshold value (g) mean", "setting": "[2]; tolperisone 20 mg/kg i.p., time 20 min", "result": 10.31, "unit": "g"}, {"measurement": "oral bioavailability", "setting": "[5]", "result": "16-20%"}, {"measurement": "Reflex Inhibition (%)", "setting": "[4]; tolperisone 25 μM alone", "result": 26.97, "unit": "%"}, {"measurement": "Reflex Inhibition (%)", "setting": "[4]; tolperisone 50 μM alone", "result": 48.61, "unit": "%"}, {"measurement": "Reflex Inhibition (%)", "setting": "[4]; tolperisone 100 μM alone", "result": 70.30, "unit": "%"}, {"measurement": "IC50", "setting": "[4]; tolperisone alone, sigmoid fitting, read-out: IC50 of tolperisone, reflex inhibitory activity", "result": 52.4, "unit": "µM"}]}
{"smiles": "CCc1ccc(C(=O)C(C)CN2CCCCC2)cc1", "note": "(stereo not shown) [Eperisone, 2-mehyl-1-(4-ethylphenyl)-3-(1-piperidinyl)-1-propanone]", "values": [{"measurement": "Tremor inhibitory effect ED50", "setting": "[1]; [7]", "result": 51.8, "unit": "mg/kg"}]}
{"smiles": "Cc1ccccc1OCC(O)CO", "note": "(stereo not shown) [Mephenesin]", "values": [{"measurement": "ED50", "setting": "[1]; [6]", "result": 81.5, "unit": "mg/kg"}]}
